The test system of one data set is Staphylococcus aureus. Put plainly: Antibacterial activity by Oxford cup method with xanthan gum as interfering substance. As to conditions: 0.20% LAE, xanthan gum present, compared with no xanthan gum. The class given is cell-based. How it is done: In order to test the performance of the HPβCD LAE clathrate prepared in Example 1, the antibacterial activity of the HPβCD/LAE clathrate in the presence of an anionic polysaccharide (xanthan gum) as an interfering substance was measured by an Oxford cup method. Groups A to G were set up, and each group had 3 parallel experiments. 15 mL of nutrient agar was added to each petri dish, cooled and solidified, and 100 μL of a Staphylococcus aureus solution (10^5 CFU/mL) was spread on each petri dish. […] Each group was placed with an Oxford cup, and 130 μL of an antibacterial solution was added to each Oxford cup; each of the Oxford cups was diffused in a 4° C. refrigerator for 24 h, cultured at 37° C. for 24 h, and an inhibition zone diameter (IZD) was measured with a micrometer. The mass percentages of the antibacterial solution added in Groups A to G were as follows: A: 0.20% LAE-no xanthan gum; B: 0.20% LAE; C: 0.08% HPβCD/LAE clathrate-0.02% LAE; D: 0.16% HPβCD/LAE clathrate-0.04% LAE; E: 0.40% HPβCD/LAE clathrate-0.10% LAE; F: 0.60% HPβCD/LAE clathrate-0.15% LAE; and G: 0.80% HPβCD/LAE clathrate-0.20% LAE. The […] was the raw material in Example 1.

Data set [1] is described as follows: pH stability by turbidity and particle size. The format is physicochemical. The settings on record: aqueous solution containing 1% w/v LAE, pH 1 to 11, room temperature 24 h. How it is done: (§1) The pH stability of a system was characterized by measuring turbidity and particle size. A 1% w/v LAE aqueous solution and an HPβCD/LAE clathrate aqueous solution (4% w/v) containing a same amount of 1% w/v LAE were prepared, respectively. The pH values of the LAE aqueous solution and the HPβCD/LAE clathrate aqueous solution were adjusted to 1, 3, 5, 7, 9, and 11 with 0.01 mol/L to 0.5 mol/L of sodium hydroxide and hydrochloric acid solutions, respectively. After allowing to stand at room temperature for 24 h, the absorbance at 600 nm of the LAE aqueous solutions and the HPβCD/LAE clathrate aqueous solutions with different pH values were measured with a UV spectrophotometer. The absorbance was used to represent a turbidity of the solution, while pure water was used as a reference. The particle size of the solution was measured with a ZS90 nanometer particle size analyzer. Photographs were taken to record the changes of the above solutions stored at 4° C. for 0 h, 24 h, 7 d, and 35 d to characterize the low-temperature storage stability of the samples.

Data set [2] in a line: Low-temperature storage stability at 4° C. (appearance). The format is physicochemical. The method, then:
as §1

The conditions of data set [3]: in water at room temperature; cited from earlier work.
The conditions of data set [4]: pH range; cited from earlier work.

In the case of `CCCCCCCCCCCC(=O)N[C@@H](CCCN=C(N)N)C(=O)OCC.Cl` [LAE, ethyl lauroyl arginate hydrochloride], in the data set on Staphylococcus aureus, the inhibition zone result is listed as “significantly reduced the inhibition zone of LAE”. Moreover, the “pH stability (turbidity, particle size)” value in data set [1] is “obviously aggregated outside the pH value of 3 to 7”. For the same molecule, the low-temperature storage appearance result is “eventually fully precipitated” in data set [2] (prolonged storage at low temperature (4° C., up to 35 d)) and “except for the solution of pH=7, all other LAE solutions had obvious crystallization” in data set [2] (storage at low temperature (4° C.) for 24 h, pH 1 to 11). In data set [3], the solubility entry is given as “less than 2%”. For the same molecule, in data set [4], the chemical stability entry is reported as “desirable chemical stability at a pH value of 3 to 7”.

Values taken from patent US20240342068A1, “CYCLODEXTRIN-BASED ETHYL LAUROYL ARGINATE (LAE) CLATHRATE, AND PREPARATION METHOD AND USE THEREOF” (NANJING UNIVERSITY OF FINANCE & ECONOMICS, priority 2022, published 2024).
